Test results as given in US8691828B2, “Thienopyrimidine as CDC7 kinase inhibitors” (Takeda Pharmaceutical Company Limited, priority 2009, dated 2014).

Key:
[1] = target: T1, cdc7/Dbf4 (Homo sapiens, UniProt O00311); test: Determination of cdc7 kinase inhibitory activity (HTRF Transcreener ADP assay); type: biochemical; settings: test compound 1 μM; 1.0 μM ATP, 10 μg/ml MCM2, 0.1 μg/ml cdc7/Dbf4, 90 min at room temperature; read-out: Inhibitory rate (%) at 1 μM
T1 construct: Full-length cdc7 co-expressed with full-length Dbf4; purchased Carna Bioscience, Inc. (Kobe, Japan)
Method: Full-length cdc7 co-expressed with full-length Dbf4 was purchased from Carna Bioscience, Inc. (Kobe, Japan). Homogeneous time-resolved fluorescence (HTRF) Transcreener ADP assay (Cisbio Inc., MA., U.S.A.) was used for detecting cdc7/Dbf4 kinase activity. Reactions were performed in kinase buffer (20 mM HEPES, pH 7.5, 10 mM magnesium acetate, 1 mM dithiothreitol) containing 1.0 μM ATP, 10 μg/ml MCM2, 0.1 μg/ml cdc7/Dbf4 for 90 min at room temperature. Free ADP from the ATP hydrolysis reaction was detected by the monoclonal ADP antibody labeled with Eu^3+-Cryptate, which competes with both native ADP and d2-coupled ADP. The TR-FRET signal was detected by EnVision (PerkinElmer Inc., MA, U.S.A.). Cdc7 kinase inhibitory rate (%) of the test compound was calculated by the following formula: Inhibitory rate(%)=(1−(count of test compound−blank)÷(control−blank))×100
The count of the solution reacted without addition of the compound was used as a “control”, and the count of the solution without the compound and cdc7/Dbf4 was used as a “blank”.

[2] = system: Colo205 cells; test: Determination of cell proliferation inhibitory activity (Cell Titer-Glo Luminescent Cell Viability Assay); type: cell-based; settings: Homo sapiens, COLO 205, 72 h, test compound 1 μM, incubation for 3 days, cellular ATP content, read-out: Inhibitory rate (%) at 1 μM
Method: Cell proliferation was measured by using Cell Titer-Glo Luminescent Cell Viability Assay (Promega, Wis., USA,). The CellTiter-Glo Luminescent Cell Viability Assay is a homogeneous method of determining the number of viable cells in culture based on quantitation of the ATP present, which signals the presence of metabolically active cells. Colo205 cells (American Type Culture Collection) were sown at 3.0×10^3 cells/well to a 96 well microplate and cultured in an incubator (37° C., 5% carbon dioxide). On the following day, 100 μl of a solution of each test compound, which was previously diluted, was added. According to the instruction manual from vender, cellular ATP content of final treatment day was measured. After incubation for 3 days, solution of Cell Titer-Glo Luminescent Cell Viability Assay was added to each well and incubated for approximately 15 min at room temperature. Luminescence of each well was measured by ARVO Light (PerkinElmer Inc., MA, USA). Taking as 100% the ATP content for the none compound treatment control group, the ratio of the residual ATP content for each treatment group was determined.

T1 sequence (O00311 whole entry): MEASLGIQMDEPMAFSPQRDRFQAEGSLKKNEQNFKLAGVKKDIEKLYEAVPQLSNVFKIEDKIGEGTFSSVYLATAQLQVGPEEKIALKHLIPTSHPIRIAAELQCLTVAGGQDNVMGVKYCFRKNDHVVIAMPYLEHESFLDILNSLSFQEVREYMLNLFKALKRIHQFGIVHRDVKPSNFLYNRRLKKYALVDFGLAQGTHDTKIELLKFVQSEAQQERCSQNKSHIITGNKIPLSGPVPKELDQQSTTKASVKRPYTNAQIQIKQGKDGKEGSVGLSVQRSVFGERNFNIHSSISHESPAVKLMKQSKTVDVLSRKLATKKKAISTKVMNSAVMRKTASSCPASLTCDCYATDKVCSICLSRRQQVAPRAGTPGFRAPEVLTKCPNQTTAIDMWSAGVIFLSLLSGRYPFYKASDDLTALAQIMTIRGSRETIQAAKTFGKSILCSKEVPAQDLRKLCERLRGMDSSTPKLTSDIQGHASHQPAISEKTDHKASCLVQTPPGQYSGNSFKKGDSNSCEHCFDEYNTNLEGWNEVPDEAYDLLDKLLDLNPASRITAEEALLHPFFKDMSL
T1 sequence (Q9UBU7 whole entry partner): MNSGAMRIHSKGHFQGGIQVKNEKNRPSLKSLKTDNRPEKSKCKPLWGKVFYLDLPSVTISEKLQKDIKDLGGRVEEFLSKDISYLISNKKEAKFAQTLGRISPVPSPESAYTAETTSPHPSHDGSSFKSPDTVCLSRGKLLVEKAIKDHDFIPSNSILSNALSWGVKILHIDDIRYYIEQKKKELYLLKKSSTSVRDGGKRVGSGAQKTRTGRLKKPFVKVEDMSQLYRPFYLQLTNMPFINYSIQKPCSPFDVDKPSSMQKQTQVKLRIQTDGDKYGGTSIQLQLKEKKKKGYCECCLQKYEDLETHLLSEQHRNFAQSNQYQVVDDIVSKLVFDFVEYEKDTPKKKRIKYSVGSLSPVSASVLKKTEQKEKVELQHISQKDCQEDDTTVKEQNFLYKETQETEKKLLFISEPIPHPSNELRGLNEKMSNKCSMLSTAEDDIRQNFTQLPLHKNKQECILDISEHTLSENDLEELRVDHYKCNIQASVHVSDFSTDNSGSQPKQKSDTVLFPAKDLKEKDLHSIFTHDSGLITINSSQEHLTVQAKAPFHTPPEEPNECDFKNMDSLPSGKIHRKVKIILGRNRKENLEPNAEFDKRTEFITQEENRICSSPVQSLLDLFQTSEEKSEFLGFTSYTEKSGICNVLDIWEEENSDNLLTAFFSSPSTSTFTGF

Row | SMILES | inhibition at 1 µM [1] [%] | inhibition at 1 µM [2] [%]
1 | O=C1NC2(CCCCC2)Nc2cc(-c3ccncc3)sc21 [Example 6, 6′-(pyridin-4-yl)-1′H-spiro[cyclohexane-1,2′-thieno[3,2-d]pyrimidin]-4′(3′H)-one] | 98.5 | –
2 | O=C1NC2(CCN(C(=O)OCc3ccccc3)CC2)Nc2cc(-c3ccncc3)sc21 [Example 9, benzyl 4′-oxo-6′-(pyridin-4-yl)-3′,4′-dihydro-1′H-spiro[piperidine-4,2′-thieno[3,2-d]pyrimidine]-1-carboxylate] | 103 | –
3 | CCN1c2cc(-c3ccncc3)sc2C(=O)NC1(C)C [Example 15, 1-ethyl-2,2-dimethyl-6-(pyridin-4-yl)-2,3-dihydrothieno[3,2-d]pyrimidin-4(1H)-one] | 97.6 | –
4 | CC1(CC(F)(F)F)NC(=O)c2sc(-c3ccncc3)cc2N1 (stereo not shown) [Example 22, 2-methyl-6-(pyridin-4-yl)-2-(2,2,2-trifluoroethyl)-2,3-dihydrothieno[3,2-d]pyrimidin-4(1H)-one] | 97.1 | –
5 | CCN1c2cc(-c3ccncc3)sc2C(=O)NC12CCCC2 [Example 27, 1′-ethyl-6′-(pyridin-4-yl)-1′H-spiro [cyclopentane-1,2′-thieno[3,2-d]pyrimidin]-4′(3′H)-one] | 101 | 59.6
6 | CC1(C)NC(=O)c2sc(-c3cn[nH]c3)cc2N1 [Example 34, 2,2-dimethyl-6-(1H-pyrazol-4-yl)-2,3-dihydrothieno[3,2-d]pyrimidin-4(1H)-one] | 104 | –
7 | Cc1[nH]ncc1-c1cc2c(s1)C(=O)NC(C)(CC(F)(F)F)N2C (stereo not shown) [Example 104, 1,2-dimethyl-6-(5-methyl-1H-pyrazol-4-yl)-2-(2,2,2-trifluoroethyl)-2,3-dihydrothieno[3,2-d]pyrimidin-4(1H)-one] | 101 | 62.9
8 | CCN1c2cc(-c3cn[nH]c3C)sc2C(=O)NC1(C)C [Example 114, 1-ethyl-2,2-dimethyl-6-(5-methyl-1H-pyrazol-4-yl)-2,3-dihydrothieno[3,2-d]pyrimidin-4(1H)-one] | – | 67.4
9 | Cc1[nH]ncc1-c1cc2c(s1)C(=O)NC(C)(C)N2CC(F)F [Example 115, 1-(2,2-difluoroethyl)-2,2-dimethyl-6-(5-methyl-1H-pyrazol-4-yl)-2,3-dihydrothieno[3,2-d]pyrimidin-4(1H)-one] | – | 66.1
10 | Cc1[nH]ncc1-c1cc2c(s1)C(=O)NC1(CCCCC1F)N2 (stereo not shown) [Example 122, 2-fluoro-6′-(5-methyl-1H-pyrazol-4-yl)-1′H-spiro [cyclohexane-1,2′-thieno[3,2-d]pyrimidin]-4′(3′H)-one] | 91.8 | 48.9
